Measured values reported in US6355799B1, “Substituted benzene compounds, process for their preparation, and herbicidal and defoliant compositions containing them” (ISK Americas Incorporated, priority 1997, dated 2002).

Assays:
Assay type in all cases: in vivo
[1] = tested on: upland rice (Oryza sp., var. Tebonnet, RICE); assay: Pre-emerge test, crop safety; settings: rated 14 days after application, 0 = no damage, 100 = complete death
Summary of the method: (§1)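 Compounds in acetone were track-sprayed at 187 l/ha, 15–1000 g ai/ha, onto sandy loam pots. Pre-emerge seeds were sown one day before spraying, with surface watering afterwards. Post-emerge plants were at the 2–3 leaf stage and sprayed with 0.25% v/v non-ionic surfactant. Injury was rated 0–100 at 14 days.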

[2] = tested on: field corn (Zea mays L., var. Dekalb 535, CORN); assay: Pre-emerge test, crop safety; settings: rated 14 days after application, 0 = no damage, 100 = complete death
Summary of the method: as §1

[3] = tested on: redroot pigweed (Amaranthus retroflexus, AMARE); assay: Pre-emerge test, greenhouse herbicide activity screening; settings: rated 14 days after application, 0 = no damage, 100 = complete death
Summary of the method: as §1

[4] = tested on: upland rice (Oryza sp., var. Tebonnet, RICE); assay: Post-emerge test, crop safety; settings: post-emerge, 14 days after application, rating scale 0-100
Summary of the method: (§2)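 Herbicidal damage is scored 0 (none) to 100 (complete plant death) two weeks after a simulated field spray. Rates span 15–1000 g ai/ha, delivered in acetone at 187 l/ha. For post-emergence treatments, plants have 2–3 leaves and the spray carries 0.25% v/v non-ionic surfactant.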

[5] = tested on: field corn (Zea mays L., var. Dekalb 535, CORN); assay: Post-emerge test, crop safety; settings: post-emerge, 14 days after application, rating scale 0-100
Summary of the method: as §2

[6] = tested on: barnyardgrass (Echinochloa crus-galli, ECHCG); assay: Post-emerge test, greenhouse herbicide activity screening; settings: post-emerge, 14 days after application, rating scale 0-100
Summary of the method: (§3)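 Compounds in acetone were track-sprayed at 15-1000 g ai/ha (187 l/ha) on sandy loam pots: pre-emerge one day after seeding, post-emerge at 2-3 leaf stage with 0.25% v/v non-ionic surfactant. Phytotoxicity was rated 14 days later on a 0 (no damage) to 100 (complete death) scale.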

[7] = tested on: large crabgrass (Digitaria sanguinalis, DIGSA); assay: as above; settings: post-emerge, 14 days after application, rating scale 0-100
Summary of the method: as §3

[8] = tested on: ivyleaf morningglory (Ipomoea hederacea, IPOHE); assay: as above; settings: post-emerge, 14 days after application, rating scale 0-100
Summary of the method: as §3

[9] = tested on: lambsquarters (Chenopodium album, CHEAL); assay: as above; settings: post-emerge, 14 days after application, rating scale 0-100
Summary of the method: as §3

[10] = tested on: johnsongrass (Sorghum halepense, SORHA); assay: as above; settings: post-emerge, 14 days after application, rating scale 0-100
Summary of the method: as §3

[11] = tested on: redroot pigweed (Amaranthus retroflexus, AMARE); assay: as above; settings: post-emerge, 14 days after application, rating scale 0-100
Summary of the method: as §3

[12] = tested on: sicklepod (Cassia obtusifolia, CASOB); assay: as above; settings: post-emerge, 14 days after application, rating scale 0-100
Summary of the method: as §3

[13] = tested on: velvetleaf (Abutilon theophrasti, ABUTH); assay: as above; settings: post-emerge, 14 days after application, rating scale 0-100
Summary of the method: as §3

[14] = tested on: green foxtail (Setaria viridis, SETVI); assay: as above; settings: post-emerge, 14 days after application, rating scale 0-100
Summary of the method: as §3

[15] = tested on: barnyardgrass (Echinochloa crus-galli, ECHCG); assay: Pre-emerge test, greenhouse herbicide activity screening; settings: rated 14 days after application, 0 = no damage, 100 = complete death
Summary of the method: as §2

[16] = tested on: large crabgrass (Digitaria sanguinalis, DIGSA); assay: as above; settings: rated 14 days after application, 0 = no damage, 100 = complete death
Summary of the method: as §2

[17] = tested on: ivyleaf morningglory (Ipomoea hederacea, IPOHE); assay: as above; settings: rated 14 days after application, 0 = no damage, 100 = complete death
Summary of the method: as §2

[18] = tested on: lambsquarters (Chenopodium album, CHEAL); assay: as above; settings: rated 14 days after application, 0 = no damage, 100 = complete death
Summary of the method: as §2

[19] = tested on: johnsongrass (Sorghum halepense, SORHA); assay: as above; settings: rated 14 days after application, 0 = no damage, 100 = complete death
Summary of the method: as §2

[20] = tested on: sicklepod (Cassia obtusifolia, CASOB); assay: as above; settings: rated 14 days after application, 0 = no damage, 100 = complete death
Summary of the method: as §2

[21] = tested on: velvetleaf (Abutilon theophrasti, ABUTH); assay: as above; settings: rated 14 days after application, 0 = no damage, 100 = complete death
Summary of the method: as §2

[22] = tested on: green foxtail (Setaria viridis, SETVI); assay: as above; settings: rated 14 days after application, 0 = no damage, 100 = complete death
Summary of the method: as §2

Question: Which “Pre-emerge phytotoxicity rating (0-100), crop damage, RICE” value ([1]; 63 g ai/ha) does the source give for COc1c(Cl)cc(F)c(-n2c(=O)cc(C(F)(F)F)n(C)c2=O)c1N(C(=O)C=Cc1ccccc1Cl)C(=O)C=Cc1ccccc1Cl [2-83] here?
Answer: 0

Question: What about the “Pre-emerge phytotoxicity rating (0-100), crop damage, RICE” value ([1]; 250 g ai/ha) of the same compound?
Answer: 0

Question: What about the “Pre-emerge phytotoxicity rating (0-100), crop damage, CORN” value ([2]; 63 g ai/ha) of the same compound?
Answer: 0

Question: And the “Pre-emerge phytotoxicity rating (0-100), crop damage, CORN” value ([2]; 250 g ai/ha)?
Answer: 0

Question: What about the “Pre-emerge Herbicidal Activity, phytotoxicity rating (0-100), AMARE” value ([3]; 63 g ai/ha) of the same compound?
Answer: 60

Question: What about the “Pre-emerge Herbicidal Activity, phytotoxicity rating (0-100), AMARE” value ([3]; 250 g ai/ha) of the same compound?
Answer: 100

Question: What about the “phytotoxicity rating RICE” value ([4]; 63 g ai/ha) of the same compound?
Answer: 100

Question: What about the “phytotoxicity rating RICE” value ([4]; 250 g ai/ha) of the same compound?
Answer: 0

Question: And the “phytotoxicity rating CORN” value ([5]; 63 g ai/ha)?
Answer: 0

Question: What about the “phytotoxicity rating CORN” value ([5]; 250 g ai/ha) of the same compound?
Answer: 0

Question: What about the “phytotoxicity rating ECHCG” value ([6]; 63 g ai/ha) of the same compound?
Answer: 0

Question: What about the “phytotoxicity rating ECHCG” value ([6]; 250 g ai/ha) of the same compound?
Answer: 0

Question: What about the “phytotoxicity rating DIGSA” value ([7]; 63 g ai/ha) of the same compound?
Answer: 0

Question: And the “phytotoxicity rating DIGSA” value ([7]; 250 g ai/ha)?
Answer: 0

Question: And the “phytotoxicity rating IPOHE” value ([8]; 63 g ai/ha)?
Answer: 10

Question: And the “phytotoxicity rating IPOHE” value ([8]; 250 g ai/ha)?
Answer: 20

Question: What about the “phytotoxicity rating CHEAL” value ([9]; 63 g ai/ha) of the same compound?
Answer: 20

Question: And the “phytotoxicity rating CHEAL” value ([9]; 250 g ai/ha)?
Answer: 50

Question: And the “phytotoxicity rating SORHA” value ([10]; 63 g ai/ha)?
Answer: 0

Question: And the “phytotoxicity rating SORHA” value ([10]; 250 g ai/ha)?
Answer: 0

Question: And the “phytotoxicity rating AMARE” value ([11]; 63 g ai/ha)?
Answer: 40

Question: And the “phytotoxicity rating AMARE” value ([11]; 250 g ai/ha)?
Answer: 90

Question: And the “phytotoxicity rating CASOB” value ([12]; 63 g ai/ha)?
Answer: 0

Question: What about the “phytotoxicity rating CASOB” value ([12]; 250 g ai/ha) of the same compound?
Answer: 0

Question: And the “phytotoxicity rating ABUTH” value ([13]; 63 g ai/ha)?
Answer: 50

Question: What about the “phytotoxicity rating ABUTH” value ([13]; 250 g ai/ha) of the same compound?
Answer: 70

Question: What about the “phytotoxicity rating SETVI” value ([14]; 63 g ai/ha) of the same compound?
Answer: 0

Question: What about the “phytotoxicity rating SETVI” value ([14]; 250 g ai/ha) of the same compound?
Answer: 0

Question: What about the “Pre-emerge Herbicidal Activity, phytotoxicity rating (0-100), ECHCG” value ([15]; 63 g ai/ha) of the same compound?
Answer: 0

Question: What about the “Pre-emerge Herbicidal Activity, phytotoxicity rating (0-100), ECHCG” value ([15]; 250 g ai/ha) of the same compound?
Answer: 0

Question: And the “Pre-emerge Herbicidal Activity, phytotoxicity rating (0-100), DIGSA” value ([16]; 63 g ai/ha)?
Answer: 0

Question: What about the “Pre-emerge Herbicidal Activity, phytotoxicity rating (0-100), DIGSA” value ([16]; 250 g ai/ha) of the same compound?
Answer: 30

Question: And the “Pre-emerge Herbicidal Activity, phytotoxicity rating (0-100), IPOHE” value ([17]; 63 g ai/ha)?
Answer: 0

Question: And the “Pre-emerge Herbicidal Activity, phytotoxicity rating (0-100), IPOHE” value ([17]; 250 g ai/ha)?
Answer: 0

Question: And the “Pre-emerge Herbicidal Activity, phytotoxicity rating (0-100), CHEAL” value ([18]; 63 g ai/ha)?
Answer: 30

Question: And the “Pre-emerge Herbicidal Activity, phytotoxicity rating (0-100), CHEAL” value ([18]; 250 g ai/ha)?
Answer: 90

Question: And the “Pre-emerge Herbicidal Activity, phytotoxicity rating (0-100), SORHA” value ([19]; 63 g ai/ha)?
Answer: 0

Question: What about the “Pre-emerge Herbicidal Activity, phytotoxicity rating (0-100), SORHA” value ([19]; 250 g ai/ha) of the same compound?
Answer: 20

Question: What about the “Pre-emerge Herbicidal Activity, phytotoxicity rating (0-100), CASOB” value ([20]; 63 g ai/ha) of the same compound?
Answer: 0

Question: What about the “Pre-emerge Herbicidal Activity, phytotoxicity rating (0-100), CASOB” value ([20]; 250 g ai/ha) of the same compound?
Answer: 0

Question: What about the “Pre-emerge Herbicidal Activity, phytotoxicity rating (0-100), ABUTH” value ([21]; 63 g ai/ha) of the same compound?
Answer: 10

Question: And the “Pre-emerge Herbicidal Activity, phytotoxicity rating (0-100), ABUTH” value ([21]; 250 g ai/ha)?
Answer: 100

Question: What about the “Pre-emerge Herbicidal Activity, phytotoxicity rating (0-100), SETVI” value ([22]; 63 g ai/ha) of the same compound?
Answer: 0

Question: What about the “Pre-emerge Herbicidal Activity, phytotoxicity rating (0-100), SETVI” value ([22]; 250 g ai/ha) of the same compound?
Answer: 40
